US8404680B2, “N-[3-(5-amino-3,3a,7,7a-tetrahydro-1H-2,4-dioxa-6-aza-inden-7-yl)-phenyl]-amides as BACE1 and/or BACE2 inhibitors” (Hoffmann-La Roche Inc., priority 2011, dated 2013)

Tests used:
BACE2 = biological target: T1, BACE2 (Rattus norvegicus, UniProt Q6IE75); test: Assay for BACE inhibition by measuring cellular TMEM27 cleavage; type: cell-based; conditions: INS-TMEM27 (INS1e-derived rat cell line, inducible hTMEM27); shed TMEM27 in medium by ELISA
T1 construct: endogenous cellular BACE2 in the Ins1e rat cell line; endogenous in cells; host or cells: INS-TMEM27 (INS1e-derived rat cell line, TetOn-inducible full-length hTMEM27)
T1 sequence (Q6IE75 63-514): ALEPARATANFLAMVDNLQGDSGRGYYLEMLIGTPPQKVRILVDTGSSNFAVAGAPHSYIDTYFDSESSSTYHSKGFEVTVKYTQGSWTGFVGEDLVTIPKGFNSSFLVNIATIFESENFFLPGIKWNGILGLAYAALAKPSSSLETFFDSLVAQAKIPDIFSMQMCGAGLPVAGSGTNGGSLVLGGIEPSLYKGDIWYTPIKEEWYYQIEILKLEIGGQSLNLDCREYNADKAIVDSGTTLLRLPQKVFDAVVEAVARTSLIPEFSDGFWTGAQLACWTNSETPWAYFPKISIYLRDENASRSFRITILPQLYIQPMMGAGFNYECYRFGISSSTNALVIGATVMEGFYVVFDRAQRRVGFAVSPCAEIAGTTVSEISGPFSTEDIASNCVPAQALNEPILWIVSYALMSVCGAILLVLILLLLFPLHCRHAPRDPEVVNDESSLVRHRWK
Text: Assay for BACE Inhibition by Measuring Cellular TMEM27 Cleavage:
The assay uses the principle of inhibition of human TMEM27 cleavage by endogenous cellular BACE2 in the Ins1e rat cell line and shedding from the cell surface into the culture medium, followed by detection in an ELISA assay Inhibition of BACE2 prevents the cleavage and shedding in a dose-dependent manner.
The stable cell line “INS-TMEM27” represents an INS1e-derived cell line with inducible expression (using the TetOn system) of full-length hTMEM27 in a doxycycline-dependent manner. The cells are cultured throughout the experiment in RPMI1640+ Glutamax (Invitrogen) Penicillin/Streptomycin, 10% Fetal bovine serum, […], […], 100 micrograms/ml G418 and 100 microgram/ml hygromycin and are grown inadherent culture at 37° C. in a standard CO2 cell culture incubator.
INS-TMEM27 cells are seeded in 96-well plates. After 2 days in culture, BACE2 inhibitor is added in a range of concentrations as required by the assay and after a further two hours, doxycycline is added to a final concentration of 500 ng/ml. The cells are incubated for a further 46 hours and the supernatant harvested for detection of shed TMEM27.
An ELISA assay (using a pair of mouse anti-human-TMEM27 antibodies, raised against the extracellular domain of TMEM27) is used for detection of TMEM27 in the culture medium. An EC50 for BACE2 inhibition is calculated using the ELISA readout for each inhibitor concentration with standard curve-fitting software such as XLFit for the Excel spreadsheet program.

BACE1 = biological target: T2, BACE1 (Homo sapiens, UniProt P56817); test: Cellular Aβ-lowering assay; type: cell-based; conditions: human HEK293 cells stably expressing human APP wt (APP695); Aβ40 in supernatant by ELISA after 18-20 hrs
T2 construct: Human HEK293 cells which are stably transfected with a vector expressing a cDNA of the human APP wt gene (APP695); endogenous in cells; host or cells: HEK293 (human), stably transfected with human APP695 wt
Protocol: Cellular Aβ-Lowering Assay:
Human HEK293 cells which are stably transfected with a vector expressing a cDNA of the human APP wt gene (APP695) were used to assess the potency of the compounds in a cellular assay. The cells were seeded in 96-well microtiter plates in cell culture medium (Iscove, plus 10% (v/v) fetal bovine serum, glutamine, penicillin/streptomycin) to about 80% confluence and the compounds were added at a 10× concentration in 1/10 volume of medium without FCS containing 8% DMSO (final concentration of DMSO was kept at 0.8% v/v). After 18-20 hrs incubation at 37° C. and 5% CO2 in a humidified incubator the culture supernatant was harvested for the determination of Aβ40 concentrations. 96well ELISA plates (e.g., Nunc MaxiSorb) were coated with monoclonal antibody which specifically recognize the C-terminal end of Aβ40 (Brockhaus et al., NeuroReport 9, 1481-1486; 1998). After blocking of non-specific binding sites with e.g. 1% BSA and washing, the culture supernatants were added in suitable dilutions together with a horseradish peroxidase-coupled Aβ detection antibody (e.g., antibody 4G8, Senetek, Md. Heights, Mo.) and incubated for 5 to 7 hrs. Subsequently the wells of the microtiter plate were washed extensively with Tris-buffered saline containing 0.05% Tween 20 and the assay was developed with tetramethylbenzidine/H2O2 in citric acid buffer. After stopping the reaction with one volume 1 NH2SO4 the reaction was measured in an ELISA reader at 450 nm wavelength. The concentrations of Aβ in the culture supernatants were calculated from a standard curve obtained with known amounts of pure Aβ peptide.

T2 sequence (P56817 46-501): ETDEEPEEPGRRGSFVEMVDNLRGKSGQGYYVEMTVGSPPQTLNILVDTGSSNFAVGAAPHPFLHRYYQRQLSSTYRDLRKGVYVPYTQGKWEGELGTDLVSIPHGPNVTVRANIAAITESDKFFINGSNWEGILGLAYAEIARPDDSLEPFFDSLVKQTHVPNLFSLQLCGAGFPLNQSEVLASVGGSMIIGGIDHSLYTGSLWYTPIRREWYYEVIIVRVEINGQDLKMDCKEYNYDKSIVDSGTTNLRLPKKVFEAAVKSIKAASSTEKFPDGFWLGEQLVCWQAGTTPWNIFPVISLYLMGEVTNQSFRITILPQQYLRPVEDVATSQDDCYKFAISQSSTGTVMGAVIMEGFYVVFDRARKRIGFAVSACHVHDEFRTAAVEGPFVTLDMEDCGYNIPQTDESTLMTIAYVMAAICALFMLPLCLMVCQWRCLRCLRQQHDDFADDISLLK

IC50 (BACE2) [nM]	IC50 (BACE1) [nM]	SMILES
37	8	C[C@]1(c2cc(NC(=O)c3ccccn3)ccc2F)N=C(N)O[C@@H]2COC[C@@H]21 [Example 5, Pyridine-2-carboxylic acid [3-((3aS,7S,7aS)-5-amino-7-methyl-3,3a,7,7a-tetrahydro-4H-2,4-dioxa-6-aza-inden-7-yl)-4-fluoro-phenyl]-amide]
14	0.8	C[C@]1(c2cc(NC(=O)c3ncc(Cl)cc3Cl)ccc2F)N=C(N)O[C@@H]2COC[C@@H]21 [Example 2, 3,5-Dichloro-pyridine-2-carboxylic acid [3-((3aS,7S,7aS)-5-amino-7-methyl-3,3a,7,7a-tetrahydro-1H-2,4-dioxa-6-aza-inden-7-yl)-4-fluoro-phenyl]-amide]
